Measured values taken from patent US20250270209A1 (INTERLINE THERAPEUTICS, INC., priority 2022, published 2025).

Tests used:
[1] = biological target: T1, wild type LRRK2 overexpressed in recombinant HEK-293T cells (Homo sapiens, UniProt Q5S007); test: pS935 LRRK2 Cell Assay (HTRF, phospho-LRRK2 Ser935); type: cell-based; settings: LRRK2 Inhibition, Table 8, 2 hours compound incubation
T1 construct: host or cells: HEK293T (transient transfection with pCMV-LRRK2 WT plasmid)
In short: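 HEK-293T cells transiently transfected with wild-type LRRK2 for 24 h, plated overnight, then treated 2 h at 37° C with compound (top 10 μM, 3-fold, 9 doses, duplicates, 0.2% DMSO). Lysates probed overnight at 23° C by sandwich HTRF for pSer935; 665/615 nm ratio read.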

[2] = biological target: LRRK2 wild type enzyme (Homo sapiens, UniProt Q5S007); test: Biochemical Assay: LRRK2 TR-FRET (LanthaScreen) kinase assay with LRRKtide substrate; settings: LRRK2 Inhibition, Table 8
In short: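 Human wild-type LRRK2 (3 nM) preincubated 15 min with compound (11-point, 3-fold, top 10 μM), then reacted 120 min at 23 °C with 400 nM LRRKtide and 25 μM ATP, pH 8.0. Stopped with EDTA; Tb-anti-pLRRKtide TR-FRET read after 30 min.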

LRRK2 wild type enzyme, sequence (Q5S007 whole entry): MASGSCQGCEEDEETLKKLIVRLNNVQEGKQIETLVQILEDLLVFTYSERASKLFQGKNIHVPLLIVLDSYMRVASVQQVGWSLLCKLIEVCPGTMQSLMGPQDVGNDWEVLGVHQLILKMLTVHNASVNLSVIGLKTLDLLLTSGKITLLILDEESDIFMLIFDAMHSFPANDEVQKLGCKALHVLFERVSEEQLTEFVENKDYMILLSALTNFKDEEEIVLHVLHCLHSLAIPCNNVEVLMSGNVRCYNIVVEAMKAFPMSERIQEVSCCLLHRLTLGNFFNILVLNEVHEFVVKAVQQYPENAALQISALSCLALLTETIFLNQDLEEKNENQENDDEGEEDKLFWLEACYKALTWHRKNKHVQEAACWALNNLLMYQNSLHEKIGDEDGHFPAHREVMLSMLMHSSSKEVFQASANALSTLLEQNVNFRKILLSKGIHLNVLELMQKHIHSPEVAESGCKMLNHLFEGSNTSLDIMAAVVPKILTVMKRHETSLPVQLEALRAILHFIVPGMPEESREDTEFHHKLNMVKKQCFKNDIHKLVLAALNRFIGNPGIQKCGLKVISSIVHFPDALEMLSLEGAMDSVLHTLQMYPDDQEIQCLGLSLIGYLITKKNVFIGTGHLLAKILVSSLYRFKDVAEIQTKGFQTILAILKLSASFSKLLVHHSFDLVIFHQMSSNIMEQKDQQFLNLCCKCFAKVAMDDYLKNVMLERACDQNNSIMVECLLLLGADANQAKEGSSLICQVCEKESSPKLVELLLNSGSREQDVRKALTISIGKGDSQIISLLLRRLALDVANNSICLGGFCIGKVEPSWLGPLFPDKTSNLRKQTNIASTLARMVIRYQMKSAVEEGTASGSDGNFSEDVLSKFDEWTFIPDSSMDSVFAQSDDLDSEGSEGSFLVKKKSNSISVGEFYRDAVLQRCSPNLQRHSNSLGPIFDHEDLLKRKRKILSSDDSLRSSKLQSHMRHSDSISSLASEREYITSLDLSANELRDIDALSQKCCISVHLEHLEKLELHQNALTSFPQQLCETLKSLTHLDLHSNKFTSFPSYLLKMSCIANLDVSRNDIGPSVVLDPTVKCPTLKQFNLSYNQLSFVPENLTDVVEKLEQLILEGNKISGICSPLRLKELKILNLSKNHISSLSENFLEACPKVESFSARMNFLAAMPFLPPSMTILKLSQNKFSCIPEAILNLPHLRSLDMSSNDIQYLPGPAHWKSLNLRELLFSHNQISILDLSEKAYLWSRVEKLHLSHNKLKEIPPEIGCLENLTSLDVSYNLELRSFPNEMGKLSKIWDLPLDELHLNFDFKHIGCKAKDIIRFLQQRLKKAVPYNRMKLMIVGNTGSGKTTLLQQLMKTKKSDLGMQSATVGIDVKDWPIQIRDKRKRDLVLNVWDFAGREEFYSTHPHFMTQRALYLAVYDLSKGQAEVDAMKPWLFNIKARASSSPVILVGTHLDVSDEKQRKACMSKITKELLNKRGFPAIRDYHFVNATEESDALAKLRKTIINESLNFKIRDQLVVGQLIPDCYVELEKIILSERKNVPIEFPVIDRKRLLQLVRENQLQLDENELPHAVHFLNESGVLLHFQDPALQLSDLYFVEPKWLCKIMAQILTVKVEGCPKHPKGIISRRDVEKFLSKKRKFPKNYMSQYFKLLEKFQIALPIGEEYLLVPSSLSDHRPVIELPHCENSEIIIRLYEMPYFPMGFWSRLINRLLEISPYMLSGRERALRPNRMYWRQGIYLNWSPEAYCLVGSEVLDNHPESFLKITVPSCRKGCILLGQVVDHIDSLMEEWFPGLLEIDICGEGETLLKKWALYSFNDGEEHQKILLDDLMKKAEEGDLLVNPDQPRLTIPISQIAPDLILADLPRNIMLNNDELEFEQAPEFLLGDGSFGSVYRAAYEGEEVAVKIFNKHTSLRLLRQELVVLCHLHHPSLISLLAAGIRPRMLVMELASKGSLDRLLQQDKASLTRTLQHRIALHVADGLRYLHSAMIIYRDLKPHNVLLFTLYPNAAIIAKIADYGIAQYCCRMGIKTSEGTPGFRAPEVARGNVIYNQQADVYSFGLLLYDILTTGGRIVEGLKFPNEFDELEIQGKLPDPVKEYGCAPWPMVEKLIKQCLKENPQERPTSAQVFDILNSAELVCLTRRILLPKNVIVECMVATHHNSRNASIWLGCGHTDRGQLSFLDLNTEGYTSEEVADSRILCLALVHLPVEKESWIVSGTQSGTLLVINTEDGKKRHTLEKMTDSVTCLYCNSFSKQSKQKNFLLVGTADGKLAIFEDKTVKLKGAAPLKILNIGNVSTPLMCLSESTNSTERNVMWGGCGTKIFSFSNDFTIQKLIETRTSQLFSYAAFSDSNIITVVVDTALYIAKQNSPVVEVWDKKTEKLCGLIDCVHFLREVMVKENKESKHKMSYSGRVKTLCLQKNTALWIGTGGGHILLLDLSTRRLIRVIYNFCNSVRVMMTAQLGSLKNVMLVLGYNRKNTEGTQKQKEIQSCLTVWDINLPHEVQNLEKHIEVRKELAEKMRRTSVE
T1 sequence (Q5S007 whole entry): as above

Row | Structure (SMILES) | IC50 [1] [nM] | IC50 [2] [nM]
1 | C[C@@H]1C[C@H](n2c(CC(=O)Nc3cnn(C4COC4)c3)nc3cnc4ccc(C#N)cc4c32)CCO1 [Compound 304, N-[1-(3-oxetanyl)-4-pyrazolyl]{3-[(2R,4R)-2-methyltetrahydro-2H-pyran-4-yl]-12-cyano-3,5,8-triazatricyclo[7.4.0.0^2,6]trideca-1(13),2(6),4,7,9,11-hexaen-4-yl}acetamide] | 107 | 0.733
2 | C[C@@H]1C[C@H](n2c(C3CC(=O)N(Cc4cccnc4)C3)nc3cnc4ccc(C#N)cc4c32)CCO1 (single isomer, unassigned) [Compound 30, 1-[(2R,4R)-2-methyloxan-4-yl]-2-[(3R*)-5-oxo-1-[(pyridin-3-yl)methyl]pyrrolidin-3-yl]-1H-imidazo[4,5-c]quinoline-8-carbonitrile] | 41.3 | 0.567
3 | C[C@@H]1C[C@H](n2c(CC(=O)Nc3ccn(C)n3)nc3cnc4ccc(C#N)cc4c32)CCO1 [Compound 188, 2-{8-cyano-1-[(2R,4R)-2-methyloxan-4-yl]-1H-imidazo[4,5-c]quinolin-2-yl}-N-(1-methyl-1H-pyrazol-3-yl)acetamide] | 7.58 | 0.321
4 | C[C@@H]1C[C@H](n2c(CC(=O)Nc3ccc(=O)n(C)c3)nc3cnc4ccc(C#N)cc4c32)CCO1 [Compound 281, N-(1-methyl-6-oxo-1,6-dihydro-3-pyridyl){3-[(2R,4R)-2-methyltetrahydro-2H-pyran-4-yl]-12-cyano-3,5,8-triazatricyclo[7.4.0.0^2,6]trideca-1,4,6,8,10,12-hexaen-4-yl}acetamide] | 336 | 0.394
5 | C[C@@H]1C[C@H](n2c(CC(=O)Nc3cncnc3O)nc3cnc4ccc(C#N)cc4c32)CCO1 [Compound 211, N-(4-hydroxy-5-pyrimidinyl){3-[(2R,4R)-2-methyltetrahydro-2H-pyran-4-yl]-12-cyano-3,5,8-triazatricyclo[7.4.0.0^2,6]trideca-1,4,6,8,10,12-hexaen-4-yl}acetamide] | 1690 | 0.484
6 | C[C@@H]1C[C@H](n2c(CC(=O)NC3(CO)CC3)nc3cnc4ccc(C#N)cc4c32)CCO1 [Compound 286, N-1-(hydroxymethyl)cyclopropyl{3-[(2R,4R)-2-methyltetrahydro-2H-pyran-4-yl]-12-cyano-3,5,8-triazatricyclo[7.4.0.0^2,6]trideca-1,4,6,8,10,12-hexaen-4-yl}acetamide] | 907 | 1.45
7 | C[C@@H]1C[C@H](n2c(CC3CN(S(C)(=O)=O)C3)nc3cnc4ccc(C#N)cc4c32)CCO1 [Compound 65, 2-[(1-methanesulfonylazetidin-3-yl)methyl]-1-[(2R,4R)-2-methyloxan-4-yl]-1H-imidazo[4,5-c]quinoline-8-carbonitrile] | 525 | 5.03
8 | C[C@@H]1C[C@H](n2c(CC(=O)Nc3ncc(C(F)(F)F)cn3)nc3cnc4ccc(C#N)cc4c32)CCO1 [Compound 355, N-[5-(trifluoromethyl)-2-pyrimidinyl]{3-[(2R,4R)-2-methyltetrahydro-2H-pyran-4-yl]-12-cyano-3,5,8-triazatricyclo[7.4.0.0^2,6]trideca-1(9),2(6),4,7,10,12-hexaen-4-yl}acetamide] | 3.92 | 0.491
9 | C[C@@H]1C[C@H](n2c(CC(=O)NCc3cccnn3)nc3cnc4ccc(Cl)cc4c32)CCO1 [Compound 148, 2-{8-chloro-1-[(2R,4R)-2-methyloxan-4-yl]-1H-imidazo[4,5-c]quinolin-2-yl}-N-[(pyridazin-3-yl)methyl]acetamide] | 4.5 | 0.376
10 | COc1nnccc1NC(=O)Cc1nc2cnc3ccc(C#N)cc3c2n1[C@@H]1CCO[C@H](C)C1 [Compound 222, N-(3-methoxy-4-pyridazinyl){3-[(2R,4R)-2-methyltetrahydro-2H-pyran-4-yl]-12-cyano-3,5,8-triazatricyclo[7.4.0.0^2,6]trideca-1,4,6,8,10,12-hexaen-4-yl}acetamide] | 2.9 | 0.263
11 | C[C@@H]1C[C@H](n2c(CC3CN(C(=O)c4ccccn4)C3)nc3cnc4ccc(C#N)cc4c32)CCO1 [Compound 56, 1-[(2R,4R)-2-methyloxan-4-yl]-2-{[1-(pyridine-2-carbonyl)azetidin-3-yl]methyl}-1H-imidazo[4,5-c]quinoline-8-carbonitrile] | 158 | 2.39
12 | Cc1cc(NC(=O)Cc2nc3cnc4ccc(C#N)cc4c3n2[C@@H]2CCO[C@H](C)C2)c(=O)n(C)n1 [Compound 214, N-(2-methyl-6-methyl-3-oxo-2,3-dihydro-4-pyridazinyl){3-[(2R,4R)-2-methyltetrahydro-2H-pyran-4-yl]-12-cyano-3,5,8-triazatricyclo[7.4.0.0^2,6]trideca-1,4,6,8,10,12-hexaen-4-yl}acetamide] | 10.3 | 0.294
13 | C[C@@H]1C[C@H](n2c(CC(=O)NC3CCCC3)nc3cnc4ccc(C#N)cc4c32)CCO1 [Compound 336, N-cyclopentyl{3-[(2R,4R)-2-methyltetrahydro-2H-pyran-4-yl]-12-cyano-3,5,8-triazatricyclo[7.4.0.0^2,6]trideca-1(9),2(6),4,7,10,12-hexaen-4-yl}acetamide] | 10.2 | 0.732
14 | Cc1nccnc1NC(=O)Cc1nc2cnc3ccc(C#N)cc3c2n1[C@@H]1CCO[C@H](C)C1 [Compound 311, N-(3-methyl-2-pyrazinyl){3-[(2R,4R)-2-methyltetrahydro-2H-pyran-4-yl]-12-cyano-3,5,8-triazatricyclo[7.4.0.0^2,6]trideca-1(9),2(6),4,7,10,12-hexaen-4-yl}acetamide] | 10 | 0.583
15 | C[C@@H]1C[C@H](n2c(C3CC(=O)N([C@@H]4CCOC4)C3)nc3cnc4ccc(C#N)cc4c32)CCO1 (stereo partly drawn) [Compound 44, 1-[(2R,4R)-2-methyloxan-4-yl]-2-{5-oxo-1-[(3R)-oxolan-3-yl]pyrrolidin-3-yl}-1H-imidazo[4,5-c]quinoline-8-carbonitrile] | 555 | 3.43
16 | C[C@@H]1C[C@H](n2c(C3CC(=O)N(CC4CC4)C3)nc3cnc4ccc(C#N)cc4c32)CCO1 (mixture of isomers) [Compound 69, 2-[(3RS)-1-(cyclopropylmethyl)-5-oxopyrrolidin-3-yl]-1-[(2R,4R)-2-methyloxan-4-yl]-1H-imidazo[4,5-c]quinoline-8-carbonitrile] | 182 | 2.28
17 | C[C@@H]1C[C@H](n2c(CC(=O)Nc3cnccn3)nc3cnc4ccc(C#N)cc4c32)CCO1 [Compound 337, N-2-pyrazinyl{3-[(2R,4R)-2-methyltetrahydro-2H-pyran-4-yl]-12-cyano-3,5,8-triazatricyclo[7.4.0.0^2,6]trideca-1,4,6,8,10,12-hexaen-4-yl}acetamide] | 1.61 | 0.337
18 | C[C@@H]1C[C@H](n2c(CC(=O)N[C@H]3C[C@@H](OCc4ccccn4)C3)nc3cnc4ccc(C#N)cc4c32)CCO1 [Compound 162, 2-{8-cyano-1-[(2R,4R)-2-methyloxan-4-yl]-1H-imidazo[4,5-c]quinolin-2-yl}-N-[(1rs,3rs)-3-[(pyridin-2-yl)methoxy]cyclobutyl]acetamide] | 55.2 | 0.485
19 | C[C@@H]1C[C@H](n2c(CC(=O)NC[C@@H]3CCOC3)nc3cnc4ccc(C#N)cc4c32)CCO1 [Compound 173, 2-{8-cyano-1-[(2R,4R)-2-methyloxan-4-yl]-1H-imidazo[4,5-c]quinolin-2-yl}-N-{[(3S)-oxolan-3-yl]methyl}acetamide] | 38.1 | 0.413
